Experimental data as given in patent publication US9522159B2, “Treatment and prevention of P. aeruginosa infections using coformycin analogs” (Albert Einstein College of Medicine, Inc., priority 2012, dated 2016).
“And” between values parts separate entries of the source, which are not always exact repeats. Identical values can stand only once. “Also recorded” adds a separate entry of the source. Like-named read-outs stand apart in the source and are kept apart here.

Tests used:
PaMTADA [1] = biological target: T1, PaMTADA (Pseudomonas aeruginosa, UniProt Q9HZ64); test: Inhibition assays for PaMTADA; assay type: biochemical
T1 sequence (Q9HZ64 1-444): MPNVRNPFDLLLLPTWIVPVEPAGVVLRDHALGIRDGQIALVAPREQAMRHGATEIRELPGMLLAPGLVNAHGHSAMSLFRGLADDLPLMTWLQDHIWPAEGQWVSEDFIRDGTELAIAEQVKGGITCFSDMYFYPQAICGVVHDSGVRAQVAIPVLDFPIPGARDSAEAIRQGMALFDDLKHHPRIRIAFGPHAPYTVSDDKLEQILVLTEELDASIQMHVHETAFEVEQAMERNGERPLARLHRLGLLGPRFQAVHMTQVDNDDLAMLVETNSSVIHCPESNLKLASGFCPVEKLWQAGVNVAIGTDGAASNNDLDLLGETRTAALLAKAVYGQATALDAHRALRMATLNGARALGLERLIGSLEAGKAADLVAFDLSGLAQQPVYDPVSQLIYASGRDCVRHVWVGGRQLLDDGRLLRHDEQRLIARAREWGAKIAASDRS
Source text: (§1) Inhibition assays. […] Controls having no enzyme and no inhibitor were included in all of the inhibition assays. The inhibition constant was obtained by fitting initial rates with variable inhibitor concentrations to equation (1) using GraFit 5 (Erithacus Software): […]
(§2) The inhibitor concentration was corrected using equation (2) when it was less than 10 times of the enzyme concentration (20): […]

[2] = test system: CC(O)[C@H]1O[C@@H](n2cnc3c(N)ncnc32)[C@H](S)[C@@H]1O; test: purified protein, by the assay type; settings: other: PaMTADA, substrate, 25° C., pH 7.4
Human ADA [3] = biological target: T2, Human ADA (Homo sapiens, UniProt P00813); settings: substrate, from Tyler et al. (15); cited from earlier work
T2 sequence (P00813 1-363): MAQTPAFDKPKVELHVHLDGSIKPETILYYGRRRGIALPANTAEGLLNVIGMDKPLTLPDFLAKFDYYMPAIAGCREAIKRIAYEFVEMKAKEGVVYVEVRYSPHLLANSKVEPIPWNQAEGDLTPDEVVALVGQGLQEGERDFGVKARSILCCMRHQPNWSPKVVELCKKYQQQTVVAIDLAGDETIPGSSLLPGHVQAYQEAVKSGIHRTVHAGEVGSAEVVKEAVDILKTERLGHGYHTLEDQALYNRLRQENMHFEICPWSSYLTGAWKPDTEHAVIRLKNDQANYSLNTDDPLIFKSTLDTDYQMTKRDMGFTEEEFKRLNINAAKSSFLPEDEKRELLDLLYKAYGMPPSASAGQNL

PaMTADA [4] = biological target: T1, PaMTADA; test: Deaminase activity of PaMTADA on substrates (enzymatic assays); assay type: biochemical; settings: for deaminase activity on substrate: PaMTADA (recombinant PA3170), result in words
Experimental: (§3) Enzymatic assays. […] Deaminase activity on guanosine was measured at 260 nm with an extinction coefficient of 3.9 mM^−1cm^−1 (18). […] The extinction coefficient is 15.5 mM^−1cm^−1 at 305 nm. Reactions of deaminase were carried out at 25° C. in 1 cm cuvettes. Assay mixtures of 1 mL contained 50 mM Hepes, pH 7.4, 100 mM NaCl, 100 μg/mL BSA, variable concentrations of substrate, and appropriate amounts of purified PaMTADA. Reactions were initiated by addition of enzyme and the initial rates were monitored with a CARY 300 UV-Visible spectrophotometer. Control rates (no PaMTADA) were subtracted from initial rates. Kinetic parameters of PaMTADA were obtained by fitting initial rates to the Michaelis-Menten equation using GraFit 5 (Erithacus Software).

[5] = biological target: E. coli MTA nucleosidase (MTAN) (Escherichia coli, UniProt P0AF12); test: Degradation of MTCF by E. coli MTA nucleosidase; assay type: biochemical
Sequence of E. coli MTA nucleosidase (MTAN) (P0AF12 whole entry): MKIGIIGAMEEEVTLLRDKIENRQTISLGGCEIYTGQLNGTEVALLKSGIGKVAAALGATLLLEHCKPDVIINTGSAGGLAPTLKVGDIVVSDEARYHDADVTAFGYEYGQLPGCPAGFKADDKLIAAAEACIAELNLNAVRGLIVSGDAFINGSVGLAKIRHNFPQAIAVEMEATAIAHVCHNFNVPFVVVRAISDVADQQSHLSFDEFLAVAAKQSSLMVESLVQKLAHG
Experimental: as §3
(§4) MTCF was examined to test if it might be metabolized by other enzymes related to MTA metabolism, namely by human MTA phosphorylase (MTAP) and E. coli MTA nucleosidase (MTAN).

P. aeruginosa PAO1 = test: Growth of P. aeruginosa PAO1 with or without MTCF (OD600); assay type: cell-based, Pseudomonas aeruginosa PAO1; settings: up to 1 μM, 36 hours at 37° C.
Experimental: (§5) Two hypotheses were considered for this activity. […] Second, the residual activity might arise from diffusional release of the inhibitor during the dilution (and incubation) of a small volume of cell extract into the larger volume of lysis buffer and other incubation buffer.

PaMTADA [6] = biological target: T1, PaMTADA; test: Inhibition of cellular PaMTADA activity, MTCF added to LB medium during growth; assay type: cell-based, Pseudomonas aeruginosa PAO1
Experimental: (§6) Inhibition of cellular PaMTADA activity. Inhibition of PaMTADA activity in cell lysates was carried out as follows. P. aeruginosa PAO1 (ATCC number: 15692) was grown at 37° C. to stationary phase in LB medium for 16 hours. Cells were collected by centrifugation at 16,100 g and washed three times with 100 mM phosphate, pH 7.4. Cells were lysed using BugBuster reagent (Novagen). […] Reaction mixtures were quenched with perchloric acid (1.8 M final concentration) and neutralized with potassium hydroxide. Precipitates were removed by centrifugation and carrier hypoxanthine, adenine, MTI, and MTA were added to the supernatant. Separation of the metabolites was carried out on a C18 Luna HPLC column (Phenomenex) with a gradient of 5 to 52.8% acetonitrile in 20 mM triethylamine acetate, pH 5.2. The UV absorbance at 260 nm was monitored. […] Fractions were collected in scintillation vials, dried, reconstituted in 200 μL deionized water prior to addition of 10 mL ULTIMA GOLD LSC-Cocktail scintillation fluid. The cpm of ^14C was counted at 20 min per cycle for three cycles using a Tri-Carb 2910TR liquid scintillation analyzer. Cell lysate was replaced by lysis buffer in reaction mixtures in control experiments. […] All other procedures were the same as described above.
(§7) [formula] where y is the percentage of degraded MTA at certain [I] […] Results and Discussion
as §5

[7] = biological target: T3, human MTA phosphorylase (MTAP) (Homo sapiens, UniProt Q13126); test: Degradation of MTCF by human MTA phosphorylase; assay type: biochemical
T3 sequence (Q13126 1-283): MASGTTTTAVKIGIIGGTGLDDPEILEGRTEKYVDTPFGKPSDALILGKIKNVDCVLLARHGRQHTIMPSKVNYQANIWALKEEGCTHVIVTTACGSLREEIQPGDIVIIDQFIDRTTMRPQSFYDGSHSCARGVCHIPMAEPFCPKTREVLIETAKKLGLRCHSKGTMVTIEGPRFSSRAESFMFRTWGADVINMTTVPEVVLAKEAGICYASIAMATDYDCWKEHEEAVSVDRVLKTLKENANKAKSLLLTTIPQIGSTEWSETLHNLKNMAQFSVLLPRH
Experimental: as §3, §4

PaMTADA [8] = biological target: T1, PaMTADA; test: Inhibition of PaMTADA activity in P. aeruginosa cell lysates ([8-14C]MTA degradation); assay type: biochemical, Pseudomonas aeruginosa PAO1
Experimental: as §6, §7
Inhibition of cellular PaMTADA activity. […]

human MTAP = biological target: T4, human MTAP (Homo sapiens, UniProt Q13126); test: Inhibition assays of HsMTAP; assay type: biochemical
T4 sequence (Q13126 1-283): T3 sequence (Q13126 1-283)
Experimental: as §3, §1, §2

Human ADA [9] = biological target: T2, Human ADA; settings: cited from earlier work; for Ki: equilibrium dissociation constant, from Tyler et al. (15); for inhibitory effect on human ADA: result in words
E. coli MTAN = E. coli MTAN (Escherichia coli, UniProt P0AF12); test: Inhibition assays of EcMTAN; assay type: biochemical
Sequence of E. coli MTAN (P0AF12 whole entry): as the sequence (P0AF12 whole entry) above

PfADA [10] = biological target: T5, PfADA (Plasmodium falciparum, UniProt Q8IJA9); test: PfADA inhibition, Ki values from Tyler et al.; assay type: biochemical; settings: times weaker than CF
T5 sequence (Q8IJA9 1-367): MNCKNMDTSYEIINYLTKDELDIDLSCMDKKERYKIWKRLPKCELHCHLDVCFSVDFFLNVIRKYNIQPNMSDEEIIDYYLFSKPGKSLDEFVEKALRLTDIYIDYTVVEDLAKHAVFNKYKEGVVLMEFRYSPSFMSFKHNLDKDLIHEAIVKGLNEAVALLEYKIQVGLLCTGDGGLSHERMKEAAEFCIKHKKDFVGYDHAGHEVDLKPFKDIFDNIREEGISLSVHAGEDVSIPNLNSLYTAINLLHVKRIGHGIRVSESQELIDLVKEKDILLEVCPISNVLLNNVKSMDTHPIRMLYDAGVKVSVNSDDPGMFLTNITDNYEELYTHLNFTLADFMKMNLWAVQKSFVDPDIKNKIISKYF

PfADA [11] = biological target: T5, PfADA; settings: cited from earlier work
[12] = PaMTADA, substrate, 25° C., pH 7.4
[13] = equilibrium dissociation constant, from Tyler et al. (15), read-out: PfADA Ki

Molecule: OC[C@H]1O[C@@H](n2cnc3c2N=CNC[C@H]3O)[C@H](O)[C@@H]1O [Coformycin (CF), Coformycin]
- Ki (PaMTADA [1]; equilibrium dissociation constant (Ki or Ki*), 25° C., pH 7.4, 100 μM MTA, read-out: PaMTADA Ki): 90 ± 10 nM

Molecule: PaMTADA (Pseudomonas aeruginosa PAO1)
- Km [2]: 1.5 µM
- kcat [2]: 24.6 ± 0.8 s⁻¹
- kcat/Km [2]: 160 ± 30 ×10^5 M^−1s^−1

Molecule: Nc1ncnc2c1ncn2[C@@H]1O[C@H](CO)[C@@H](O)[C@H]1O [adenosine]
- Km (Human ADA [3]): 22 ± 3 µM
- kcat (Human ADA [3]): 36 ± 1 s⁻¹
- Km (PaMTADA [4]; [12]): 46 µM
- kcat (PaMTADA [4]; [12]): 17 s⁻¹ and 17 ± 1 s⁻¹

Molecule: CSC[C@H]1O[C@@H](n2cnc3c2N=CNC[C@H]3O)[C@H](O)[C@@H]1O [MTCF, 5′-methylthiocoformycin]
- degradation of MTCF, kobs [5]: < 0.001 s⁻¹
- effect on cell growth (P. aeruginosa PAO1): no effect
- concentration at which maximal inhibition was achieved (PaMTADA [6]; MTCF in LB medium): 10 nM
- IC50 (PaMTADA [6]; MTCF in LB medium during growth, corrected for residual activity): 3 nM
- PaMTADA activity (PaMTADA [6]; cells grown with 500 nM MTCF in LB, 100 nM MTCF added to cell lysate): All PaMTADA activity was inhibited
- permeability to P. aeruginosa cells (PaMTADA [6]; inferred from inhibition after growth in MTCF-containing LB): permeable
- degradation of MTCF, kobs [7]: < 0.001 s⁻¹
- degradation of MTA (PaMTADA [8]; 50 nM inhibitor in cell lysate): completely blocked
- IC50 (PaMTADA [8]; MTCF added to P. aeruginosa cell lysate, [8-14C]MTA degradation, 20 min): 4 nM
- Ki (human MTAP): 3000 nM
- inhibition of human MTA phosphorylase (human MTAP; result in words): no significant inhibition; also recorded: no significant inhibitory effects
- Ki (Human ADA [9]): > 10000 nM
- inhibitory effect on human ADA (Human ADA [9]): no significant inhibition; also recorded: no significant inhibitory effects
- Ki (E. coli MTAN): > 5000 nM

Molecule: OC[C@H]1O[C@@H](n2cnc3c2NC=NC[C@H]3O)C[C@@H]1O [DCF, 2′-deoxycoformycin, reference compound]
- Ki (PaMTADA [1]): 37 nM

Molecule: CCCSCC1OC(n2cnc3c2N=CNCC3O)CC1O (centres unmarked) [PrTDCF, 5′-propylthio-2′-deoxycoformycin]
- Ki (PaMTADA [1]): 0.067 nM
- binding to PaMTADA relative to MTDCF (PaMTADA [1]; times weaker than MTDCF): 8 times
- binding affinity for PfADA relative to CF (PfADA [10]): 150 times
- Ki (Human ADA [9]): > 10000 nM

Molecule: Nc1ncnc2c1ncn2[C@@H]1O[C@H](CSCC[C@H](N)C(=O)O)[C@@H](O)[C@H]1O [SAH, S-adenosylhomocysteine]
- deaminase activity on substrate (PaMTADA [4]): inactive

Molecule: Nc1ncnc2nc[nH]c12 [adenine]
- deaminase activity on substrate (PaMTADA [4]): inactive

Molecule: CSCC1OC(n2cnc3c2N=CNCC3O)CC1O (centres unmarked) [MTDCF, 5′-methylthio-2′-deoxycoformycin]
- Ki (PaMTADA [1]): 0.008 nM
- binding affinity for PfADA relative to CF (PfADA [10]): 9 times
- Ki (Human ADA [9]): > 10000 nM
- inhibitory effect on human ADA (Human ADA [9]): no inhibitory effect
- Ki (PfADA [11]; [13]): 0.7 ± 0.2 nM
- Ki (PfADA [11]; from (15), read-out: PfADA Ki / equilibrium dissociation constant): 0.7 nM

Molecule: Nc1nc2c(ncn2[C@@H]2O[C@H](CO)[C@@H](O)[C@H]2O)c(=O)[nH]1 [guanosine]
- deaminase activity on substrate (PaMTADA [4]): inactive

Molecule: O[C@@H]1CNC=Nc2c1ncn2[C@H]1C[C@H](O)[C@@H](CSc2ccccc2)O1 [PhTDCF, 5′-phenylthio-2′-deoxycoformycin]
- Ki (PaMTADA [1]; 25° C., pH 7.4, 100 μM MTA, read-out: PaMTADA Ki / dissociation constant): 0.13 nM
- Ki (PfADA [11]; [13]): 60 nM
